System: LPS-induced TNF-α release
Assay: inhibition of LPS-induced TNF-α release from THP1 cells (TNF-α by ELISA)
Assay type: cell-based
Conditions: Homo sapiens, THP-1, LPS 2 mg/ml, 0.5 hour preincubation with compound, 3 hours at 37° C. with LPS, read-out: IC50 (concentration of test compound which brings about 50% inhibition of LPS-induced TNF-α release)
Procedure: Aliquots (200 μl) of the cell suspension were plated out on 96 well culture plates and incubated for 0.5 hour at 37° C. prior to the addition of the test compounds. The latter were dissolved in dimethyl sulphoxide (DMSO) to a stock concentration of 1.2 mM which was diluted with phosphate buffered saline/10% DMSO solution to provide test compounds in final concentrations of 10^-9 to 10^-5 M, with each concentration being tested in duplicate. The cells were incubated with the test compounds for 0.5 hour at 37° C., LPS (bacterial lipopolysaccharide) was then added to a concentration of 2 mg/ml and incubation was continued for 3 hours at 37° C. in an atmosphere containing 5% CO2 and at 95% relative humidity. After centrifugation at 260 g for 10 minutes an aliquot of each supernatant was removed and the amount of TNF-α was estimated by ELISA (R & D Systems Europe Ltd., Abingdon, England).

SMILES	IC50
CC(C)C[C@@H](C(=O)NN1C(=O)CNC1=O)[C@H](C/C=C/c1ccccc1)C(=O)NO [Compound A, (E)-2(R)-[1(S)-(Hydroxycarbamoyl)-4-phenyl-3-butenyl]-4-methyl-N-(2,5-dioxo-1-imidazolidinyl)valeramide]	280 nM
CC(C)C[C@@H](C(=O)NN1C(=O)CCNC1=O)[C@H](C/C=C/c1ccccc1)C(=O)NO [Compound B, (E)-N-(Hexahydro-2,6-dioxo-1-pyrimidinyl)-2(R)-[1(S)-(hydroxycarbamoyl)-4-phenyl-3-butenyl]-4-methylvaleramide]	382 nM
CC(C)C[C@@H](C(=O)NN1C(=O)CNC1=O)[C@H](CCCC1CCCCC1)C(=O)NO [Compound C, 2(R)-[4-Cyclohexyl-1(S)-(hydroxycarbamoyl)butyl]-4-methyl-N-(2,5-dioxo-1-imidazolidinyl)valeramide]	242 nM
CC(C)C[C@@H](C(=O)NN1C(=O)NCCS1(=O)=O)[C@H](C/C=C/c1ccccc1)C(=O)NO [Compound D, (E)-N-(Tetrahydro-3-oxo-2H-1,2,4-thiadiazin-2-yl)-2(R)-[1(S)-(hydroxycarbamoyl)-4-phenyl-3-butenyl]-4-methylvaleramide S,S-dioxide]	389 nM
CC(C)C[C@@H](C(=O)NN1C(=O)CNCC1=O)[C@H](CCCc1ccccc1)C(=O)NO [Compound E, 2(R)-[1(S)-(Hydroxycarbamoyl)-4-phenylbutyl]-4-methyl-N-(2,6-dioxo-1-piperazinyl)valeramide p-toluenesulphonate]	1450 nM
CC[C@H](C)[C@@H]1NC(=O)N(NC(=O)[C@H](CC(C)C)[C@H](C/C=C/c2ccccc2)C(=O)NO)C1=O [Compound K, (E)-2(R)-[1(S)-(Hydroxycarbamoyl)-4-phenyl-3-butenyl]-N-[4(S)-(1(S)-methylpropyl)-2,5-dioxo-1-imidazolidinyl]-4-methylvaleramide]	162 nM
CC(C)C[C@@H](C(=O)NN1C(=O)N[C@@H](CO)C1=O)[C@H](C/C=C/c1ccccc1)C(=O)NO [Compound L, (E)-2(R)-[1(S)-(Hydroxycarbamoyl)-4-phenyl-3-butenyl]-N-[4(S)-(hydroxymethyl)-2,5-dioxo-1-imidazolidinyl]-4-methylvaleramide]	302 nM
CC(C)C[C@@H](C(=O)NN1C(=O)NC2(CCN(C(=O)OCc3ccccc3)CC2)C1=O)[C@H](CCCc1ccccc1)C(=O)NO [Compound M, Benzyl 3-[2(R)-[1(S)-(hydroxycarbamoyl)-4-phenylbutyl]-4-methylvaleramido]-2,4-dioxo-1,3,8-triazaspiro[4,5]decane-8-carboxylate]	620 nM
CC(C)C[C@@H](C(=O)Nn1c(=O)[nH]c2ccsc2c1=O)[C@H](CCCc1ccccc1)C(=O)NO [Compound N, N-(1,2,3,4-Tetrahydro-2,4-dioxothieno[3,2-d]pyrimidin-3-yl)-2(R)-[1(S)-(hydroxycarbamoyl)-4-phenylbutyl]-4-methylvaleramide]	172 nM
CC(C)C[C@@H](C(=O)Nn1c(=O)[nH]c2cscc2c1=O)[C@H](CCCc1ccccc1)C(=O)NO [Compound O, N-(1,2,3,4-Tetrahydro-2,4-dioxothieno[3,4-d]pyrimidin-3-yl)-2(R)-[1(S)-(hydroxycarbamoyl)-4-phenylbutyl]-4-methylvaleramide]	177 nM
CC(=O)N1CCC2(CC1)NC(=O)N(NC(=O)[C@H](CC(C)C)[C@H](CCCc1ccccc1)C(=O)NO)C2=O [Compound R, 1-(8-Acetyl-2,4-dioxo-1,3,8-triazaspiro[4. 5]decan-3-yl)-2(R)-[1(S)-(hydroxycarbamoyl)-4-phenylbutyl]-4-methylvaleramide]	481 nM
CC(C)C[C@@H](C(=O)NN1C(=O)CNC1=O)[C@H](Cc1ccc(-c2ccccc2)cc1)C(=O)NO [Compound S, 2(R)-[2-(4-Biphenylyl)-1(S)-(hydroxycarbamoyl)ethyl]-N-(2,5-dioxo-1-imidazolidinyl)-4-methylvaleramide]	308 nM

Further lines, results first:

IC50	SMILES
156 nM	CC(C)C[C@@H](C(=O)NN1C(=O)N[C@@H](C(C)C)C1=O)[C@H](CCCc1ccccc1)C(=O)NO [Compound F, 2(R)-[1(S)-(Hydroxycarbamoyl)-4-phenylbutyl]-N-(4(S)-isopropyl-2,5-dioxo-1-imidazolidinyl)-4-methylvaleramide]
147 nM	CC[C@H](C)[C@@H]1NC(=O)N(NC(=O)[C@H](CC(C)C)[C@H](CCCc2ccccc2)C(=O)NO)C1=O [Compound G]
234 nM	CSCC[C@@H]1NC(=O)N(NC(=O)[C@H](CC(C)C)[C@H](CCCc2ccccc2)C(=O)NO)C1=O [Compound H, 2(R)-[1(S)-(Hydroxycarbamoyl)-4-phenylbutyl]-4-methyl-N-[4(S)-[2-(methylthio)ethyl]-2,5-dioxo-1-imidazolidinyl]valeramide]
387 nM	CC(C)C[C@@H](C(=O)NN1C(=O)N[C@@H](CO)C1=O)[C@H](CCCc1ccccc1)C(=O)NO [Compound I, 2(R)-[1(S)-(Hydroxycarbamoyl)-4-phenylbutyl]-N-[4(S)-(hydroxymethyl)-2,5-dioxo-1-imidazolidinyl]-4-methylvaleramide]
597 nM	CC(C)C[C@@H](C(=O)NN1C(=O)[C@H](C(C)C)NC1=S)[C@H](CCCc1ccccc1)C(=O)NO [Compound J, 2(R)-[1(S)-(Hydroxycarbamoyl)-4-phenylbutyl]-N-(4(S)-isopropyl-5-oxo-2-thioxo-1-imidazolidinyl)-4-methylvaleramide]
346 nM	COC[C@@H]1NC(=O)N(NC(=O)[C@H](CC(C)C)[C@H](CCCc2ccccc2)C(=O)NO)C1=O [Compound P]
234 nM	CC(C)C[C@@H](C(=O)NN1C(=O)CNC1=O)[C@H](CCCc1ccccc1)C(=O)NO [Compound Q, 2(R)-[1(S)-(Hydroxycarbamoyl)-4-phenylbutyl]-4-methyl-N-(2,5-dioxo-1-imidazolidinyl)valeramide]
